Seven molecules from US8518913B2, “Phosphorous derivatives as chemokine receptor modulators” (Allergan, Inc., priority 2010, dated 2013) can be followed below.

Where two headings read alike, the source gives them in different places.

This test concerns the target T1, CCR2 receptor (Homo sapiens, UniProt P41597).
T1 construct: expressed in transfected cells
The test can be described thus: CCR2 calcium activity assay on FLIPR Tetra in HEK-Gqi5 cells stably expressing CCR2. It is filed as cell-based. Here is the method: HEK-Gqi5 cells stably expressing CCR2 were cultured in (DMEM high glucose, 10% FBS, 1% PSA, 400 μg/ml geneticin and 50 μg/ml hygromycin. Appropriate positive control chemokines (MCP-1, MIP1A or RANTES) was used as the positive control agonist for screening compound-induced calcium activity assayed on the FLIPR^Tetra. The drug plates were prepared in 384-well microplates using the EP3 and the MultiPROBE robotic liquid handling systems. Compounds were synthesized and tested for CCR2 activity.

Setting [1] is: HEK-Gqi5 cells stably expressing CCR2, calcium activity, FLIPR Tetra.
The mark [2] stands for this setting: HEK-Gqi5 cells stably expressing CCR2, calcium activity, FLIPR Tetra, read-out: CCR2 IC50.

T1 sequence (P41597 whole entry): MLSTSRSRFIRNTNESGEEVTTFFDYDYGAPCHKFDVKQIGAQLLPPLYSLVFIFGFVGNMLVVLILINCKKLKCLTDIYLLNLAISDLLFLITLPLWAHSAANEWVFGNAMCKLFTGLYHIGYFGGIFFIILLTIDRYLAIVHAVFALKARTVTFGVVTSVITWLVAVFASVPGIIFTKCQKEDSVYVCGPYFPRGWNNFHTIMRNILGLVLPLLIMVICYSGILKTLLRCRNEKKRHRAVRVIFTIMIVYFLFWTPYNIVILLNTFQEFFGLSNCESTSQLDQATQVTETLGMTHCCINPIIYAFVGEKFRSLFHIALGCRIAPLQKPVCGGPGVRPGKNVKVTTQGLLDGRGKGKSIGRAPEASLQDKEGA

In general, IC50 refers to the concentration needed to halve the response being measured. As to `COP(=O)(c1ccc(Cl)cc1NS(=O)(=O)c1ccc(Cl)c(C(F)(F)F)c1)N1CCC(=O)CC1` (centres unmarked) [Compound 12, Methyl [4-chloro-2-({[4-chloro-3-(trifluoromethyl)phenyl]sulfonyl}amino)phenyl](4-oxopiperidin-1-yl)phosphinate], the “CCR2 % ANTAGONISM” value under setting [1] turned out to be 95%. Further, the IC50 under setting [2] stood at 0.124 µM.
As for `CP(C)(=O)c1ccc(Cl)cc1NS(=O)(=O)c1ccc(Cl)c(C(F)(F)F)c1` [Compound 15, 4-Chloro-N-[5-chloro-2-(dimethylphosphoryl)phenyl]-3-(trifluoromethyl)benzenesulfonamide], the “CCR2 % ANTAGONISM” value under setting [1] is reported as 92%. Besides, the IC50 under setting [2] came to 0.125 µM.
Taken in the same sequence, the figures for `CCCCOP(=O)(c1ccc(Cl)cc1NS(=O)(=O)c1ccc(Cl)c(C(F)(F)F)c1)N1CCC(=O)CC1` (centres unmarked) [Compound 10, Butyl [4-chloro-2-({[4-chloro-3-(trifluoromethyl)phenyl]sulfonyl}amino)phenyl](4-oxopiperidin-1-yl)phosphinate] were 84% and 0.537 µM.
`CCOP(C)(=O)c1ccc(Cl)cc1NS(=O)(=O)c1ccc(Cl)c(C(F)(F)F)c1` (centres unmarked) [Compound 1, Ethyl [4-chloro-2-({[4-chloro-3-(trifluoromethyl)phenyl]sulfonyl}amino)phenyl]methylphosphinate]: the IC50 turned out to be 0.159 µM. Further, the “CCR2 % ANTAGONISM” value under setting [1] stood at 80%.
For `CCOP(=O)(c1ccc(Cl)cc1NS(=O)(=O)c1ccc(Cl)c(C(F)(F)F)c1)N1CCOCC1` (centres unmarked) [Compound 11, Ethyl [4-chloro-2-({[4-chloro-3-(trifluoromethyl)phenyl]sulfonyl}amino)phenyl]morpholin-4-ylphosphinate], the “CCR2 % ANTAGONISM” value under setting [1] is listed as 65%. Moreover, the IC50 under setting [2] is 0.15 µM.
As for `CP(=O)(c1ccc(Cl)cc1NS(=O)(=O)c1ccc(Cl)c(C(F)(F)F)c1)N1CCC(=O)CC1` (centres unmarked) [Compound 7, 4-Chloro-N-{5-chloro-2-[methyl(4-oxopiperidin-1-yl)phosphoryl]phenyl}-3-(trifluoromethyl)benzenesulfonamide], the “CCR2 % ANTAGONISM” value under setting [1] was 87%. The IC50 under setting [2] was 0.025 µM.
For `CP(=O)(c1ccc(Cl)cc1NS(=O)(=O)c1ccc(Cl)c(C(F)(F)F)c1)N1CCOCC1` (centres unmarked) [Compound 6, 4-Chloro-N-{5-chloro-2-[methyl(morpholin-4-yl)phosphoryl]phenyl}-3-(trifluoromethyl)benzenesulfonamide], in that order: 93% and 0.015 µM.
